Test results: patent US20020082254A1, “Compounds for treating disorders where a decreased level of plasma FFA is desired” (priority 2000, published 2002)

These compounds were tested against T1, Hormone-sensitive lipase (HSL) (Homo sapiens, UniProt Q05469) (assay: Hormone-sensitive lipase (HSL) inhibition assay, 3H-labeled triolein or MOME substrate). Details: read-out: HSL inhibition (IC50).
T1 sequence (Q05469 1-1076): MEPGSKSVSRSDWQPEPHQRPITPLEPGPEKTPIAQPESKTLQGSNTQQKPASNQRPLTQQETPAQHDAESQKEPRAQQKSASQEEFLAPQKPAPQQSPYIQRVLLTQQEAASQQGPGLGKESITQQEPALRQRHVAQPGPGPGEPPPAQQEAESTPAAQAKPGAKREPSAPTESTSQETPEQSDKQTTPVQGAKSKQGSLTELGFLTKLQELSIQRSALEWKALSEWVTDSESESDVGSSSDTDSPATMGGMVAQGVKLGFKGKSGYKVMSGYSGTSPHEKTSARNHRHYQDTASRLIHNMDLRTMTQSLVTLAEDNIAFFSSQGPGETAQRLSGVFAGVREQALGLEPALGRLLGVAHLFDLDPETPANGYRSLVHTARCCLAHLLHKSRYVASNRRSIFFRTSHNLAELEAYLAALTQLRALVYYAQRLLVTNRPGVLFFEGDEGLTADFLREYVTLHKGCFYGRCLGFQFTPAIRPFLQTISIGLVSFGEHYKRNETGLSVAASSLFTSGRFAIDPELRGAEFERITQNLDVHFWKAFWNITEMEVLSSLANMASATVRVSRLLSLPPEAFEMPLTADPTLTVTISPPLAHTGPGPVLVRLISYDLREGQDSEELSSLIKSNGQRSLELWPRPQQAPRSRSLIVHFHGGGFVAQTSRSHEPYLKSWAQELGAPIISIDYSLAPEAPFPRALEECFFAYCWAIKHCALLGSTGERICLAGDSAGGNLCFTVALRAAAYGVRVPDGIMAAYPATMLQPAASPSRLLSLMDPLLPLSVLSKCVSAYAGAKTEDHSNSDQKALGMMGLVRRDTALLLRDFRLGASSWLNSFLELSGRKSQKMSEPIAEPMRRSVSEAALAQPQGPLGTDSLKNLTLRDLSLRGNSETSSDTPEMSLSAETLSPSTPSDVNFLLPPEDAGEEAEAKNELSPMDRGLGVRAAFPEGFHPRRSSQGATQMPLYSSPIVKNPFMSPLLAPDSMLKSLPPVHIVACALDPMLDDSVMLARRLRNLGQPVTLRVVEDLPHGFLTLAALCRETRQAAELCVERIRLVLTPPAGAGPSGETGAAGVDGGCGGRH
Format: biochemical
Method in brief: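 HSL enzyme (0.12 mg/ml stock) preincubated with inhibitor in PED-BSA, then given sonicated PC:PI-emulsified ³H-triolein or ³H-MOME in 0.1 M potassium phosphate pH 7 with BSA. 30 min at 37 °C; released radiolabelled fatty acid extracted in methanol/chloroform/heptane at pH 10.5 and scintillation counted.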
With `O=C(NN1CCc2ccccc2C1)Oc1ccc(Cl)cc1` [Example 6, (3,4-Dihydro-1H-isoquinolin-2-yl)-carbamic acid 4-chloro-phenyl Ester] the IC50 was 0.019 µM. `CC(C)(C)OC(=O)Nc1ccc(OC(=O)NN2CCc3ccccc3C2)cc1` [Example 17, (3,4-Dihydro-1H-isoquinolin-2-yl)-carbamic Acid 4-tert-butoxycarbonylamino-phenyl Ester] was tested, and the IC50 was 0.003 µM. In the case of `CC1Cc2ccccc2CN1NC(=O)Oc1ccc(Cl)cc1` (stereo not drawn) [Example 23, (3-Methyl-3,4-dihydro-1H-isoquinolin-2-yl)-carbamic Acid 4-chloro-phenyl Ester], the IC50 is reported as 0.04 µM.
